# Laboratory results as given in ChEMBL document CHEMBL3885861, “Open TG-GATES”.
# Organism: Rattus norvegicus
# Test: Open TG-GATES - Regimen: Daily Repeat
# Type: toxicity, organism-based, Sprague-Dawley
# Design: regimen Daily Repeat, gender Male, age 6 weeks
# Settings: in vivo, po, route gavage; for APTT / Bas / Eos / Fbg / Hb / Ht / Lym / MCH / MCHC / MCV / Mono / Neu / PT / Plat / RBC / Ret / WBC: tissue Blood; for KIDNEY_L / KIDNEY_R / KIDNEY_TOTAL: tissue Kidney; for LIVER: tissue Liver
# [1] = 0 mg/kg, […], tissue Plasma, dose level Control, time 28 day
# [2] = 100 mg/kg, 72 h, dose level Low, time 3 day
# [3] = 100 mg/kg, 72 h, tissue Plasma, dose level Low, time 3 day
# [4] = 100 mg/kg, […], dose level Low, time 7 day
# [5] = 100 mg/kg, […], dose level Low, time 14 day
# [6] = 100 mg/kg, […], dose level Low, time 28 day
# [7] = 100 mg/kg, […], tissue Plasma, dose level Low, time 7 day
# [8] = 100 mg/kg, […], tissue Plasma, dose level Low, time 14 day
# [9] = 100 mg/kg, […], tissue Plasma, dose level Low, time 28 day
compound,measurement,setting,value
O=C(O)c1ccccc1Nc1ccccc1 [FENAMIC ACID],RALB,[1],2.8 g/dL
same,TBIL,[1],0.05 mg/dL
same,TC,[1],64.8 mg/dL
same,TG,[1],134.8 mg/dL
same,TP,[1],6.2 g/dL
same,gamma-GTP,[1],1 IU/L
same,TERMINAL_BW,[2],236.5 g
same,APTT,[2],15.6 s
same,Bas,[2],0.6%
same,Eos,[2],1%
same,Fbg,[2],286.4 mg/dL
same,Hb,[2],13.5 g/dL
same,Ht,[2],40.5%
same,Lym,[2],79.6%
same,MCH,[2],20.9 pg
same,MCHC,[2],33.4%
same,MCV,[2],62.6 fL
same,Mono,[2],2%
same,Neu,[2],16.8%
same,PT,[2],14.2 s
same,Plat,[2],122.4 x10_4/uL
same,RBC,[2],647.6 x10_4/ul
same,Ret,[2],7.2%
same,WBC,[2],82.6 x10_2/uL
same,KIDNEY_L,[2],1 g
same,KIDNEY_R,[2],1 g
same,KIDNEY_TOTAL,[2],2 g
same,LIVER,[2],11.2 g
same,A/G,[3],0.9
same,ALP,[3],1990.6 IU/L
same,ALT,[3],37.6 IU/L
same,AST,[3],64.2 IU/L
same,BUN,[3],13.8 mg/dL
same,CRE,[3],0.2 mg/dL
same,Ca,[3],11.7 mg/dL
same,Cl,[3],106.2 meq/L
same,GLC,[3],184.4 mg/dL
same,IP,[3],6.9 mg/dL
same,K,[3],4.2 meq/L
same,LDH,[3],82 IU/L
same,Na,[3],143.6 meq/L
same,PL,[3],144.2 mg/dL
same,RALB,[3],2.7 g/dL
same,TC,[3],75.6 mg/dL
same,TG,[3],72.2 mg/dL
same,TP,[3],5.6 g/dL
same,gamma-GTP,[3],1.2 IU/L
same,TERMINAL_BW,[4],277.8 g
same,TERMINAL_BW,[5],337.7 g
same,TERMINAL_BW,[6],419.6 g
same,APTT,[4],16 s
same,Bas,[4],0.6%
same,Eos,[4],1%
same,Fbg,[4],288.2 mg/dL
same,Hb,[4],13.4 g/dL
same,Ht,[4],39.6%
same,Lym,[4],73%
same,MCH,[4],20.9 pg
same,MCHC,[4],33.9%
same,MCV,[4],61.5 fL
same,Mono,[4],2.6%
same,Neu,[4],22.8%
same,PT,[4],13.9 s
same,Plat,[4],114.4 x10_4/uL
same,RBC,[4],642.8 x10_4/ul
same,Ret,[4],5.7%
same,WBC,[4],82.6 x10_2/uL
same,APTT,[5],16.8 s
same,Bas,[5],0.8%
same,Eos,[5],1%
same,Fbg,[5],308.8 mg/dL
same,Hb,[5],14.4 g/dL
same,Ht,[5],41.6%
same,Lym,[5],75.4%
same,MCH,[5],20.8 pg
same,MCHC,[5],34.5%
same,MCV,[5],60.3 fL
same,Mono,[5],2.4%
same,Neu,[5],20.2%
same,PT,[5],13.7 s
same,Plat,[5],118.3 x10_4/uL
same,RBC,[5],689.4 x10_4/ul
same,Ret,[5],4.5%
same,WBC,[5],82.2 x10_2/uL
same,APTT,[6],17.2 s
same,Bas,[6],0.2%
same,Eos,[6],1%
same,Fbg,[6],305.2 mg/dL
same,Hb,[6],15.1 g/dL
same,Ht,[6],43.9%
same,Lym,[6],78.2%
same,MCH,[6],19.4 pg
same,MCHC,[6],34.5%
same,MCV,[6],56.2 fL
same,Mono,[6],2%
same,Neu,[6],18%
same,PT,[6],14.3 s
same,Plat,[6],103.7 x10_4/uL
same,RBC,[6],780.8 x10_4/ul
same,Ret,[6],2.6%
same,WBC,[6],94 x10_2/uL
same,KIDNEY_L,[4],1.2 g
same,KIDNEY_R,[4],1.2 g
same,KIDNEY_TOTAL,[4],2.3 g
same,KIDNEY_L,[5],1.3 g
same,KIDNEY_R,[5],1.2 g
same,KIDNEY_TOTAL,[5],2.5 g
same,KIDNEY_L,[6],1.5 g
same,KIDNEY_R,[6],1.5 g
same,KIDNEY_TOTAL,[6],3 g
same,LIVER,[4],13 g
same,LIVER,[5],14.7 g
same,LIVER,[6],16.7 g
same,A/G,[7],0.9
same,ALP,[7],1790.8 IU/L
same,ALT,[7],37 IU/L
same,AST,[7],63.4 IU/L
same,BUN,[7],13.4 mg/dL
same,CRE,[7],0.2 mg/dL
same,Ca,[7],11.4 mg/dL
same,Cl,[7],105.6 meq/L
same,GLC,[7],182 mg/dL
same,IP,[7],6.8 mg/dL
same,K,[7],4.3 meq/L
same,LDH,[7],94.6 IU/L
same,Na,[7],142.8 meq/L
same,PL,[7],160.6 mg/dL
same,RALB,[7],2.7 g/dL
same,TC,[7],80.2 mg/dL
same,TG,[7],136.8 mg/dL
same,TP,[7],5.8 g/dL
same,gamma-GTP,[7],1 IU/L
same,A/G,[8],0.9
same,ALP,[8],1703.6 IU/L
same,ALT,[8],35.6 IU/L
same,AST,[8],63.6 IU/L
same,BUN,[8],14.2 mg/dL
same,CRE,[8],0.3 mg/dL
same,Ca,[8],11.1 mg/dL
same,Cl,[8],105.2 meq/L
same,GLC,[8],179.4 mg/dL
same,IP,[8],7 mg/dL
same,K,[8],4.2 meq/L
same,LDH,[8],95 IU/L
same,Na,[8],143.4 meq/L
same,PL,[8],158.4 mg/dL
same,RALB,[8],2.7 g/dL
same,TC,[8],80.8 mg/dL
same,TG,[8],109.2 mg/dL
same,TP,[8],5.8 g/dL
same,gamma-GTP,[8],1 IU/L
same,A/G,[9],0.8
same,ALP,[9],1187.4 IU/L
same,ALT,[9],33.4 IU/L
same,AST,[9],59.2 IU/L
same,BUN,[9],14.2 mg/dL
same,CRE,[9],0.3 mg/dL
same,Ca,[9],11 mg/dL
same,Cl,[9],105.6 meq/L
same,GLC,[9],179.6 mg/dL
same,IP,[9],6.5 mg/dL
same,K,[9],3.9 meq/L
same,LDH,[9],87 IU/L
same,Na,[9],144.6 meq/L
same,PL,[9],154.2 mg/dL
same,RALB,[9],2.8 g/dL
